Measurements reported in patent EP1054594B1, “INOTROPIC AND DIURETIC EFFECTS OF EXENDIN AND GLP-1” (AMYLIN PHARMACEUTICALS, INC., priority 1998, dated 2007).

Key:
[1] = Diuretic effects of GLP-1 or exendin in anesthetized rats (urine flow, sodium excretion, urinary potassium after intravenous bolus); assay type: in vivo, Male, Harlan Sprague Dawley rats
Experimental: Surgical preparation: The preparation used here was as described in Young et al., (Drug Dev Res. 37:231-248, 1996), but modified by the addition of unilateral ureteral cannulation. Anesthesia was induced with 5% halothane, maintained with 2% halothane during surgery and with 0.7 to 1% thereafter. Tracheotomy and cannulation of a femoral artery, saphenous vein and a single ureter were performed. […] The venous line was used for drug administration. Total saline infusion rate was kept at 4 mL/hr.
Observations are expressed as the percent of baseline, defined as the mean of measurements made in the 30 min prior to starting peptide or vehicle infusion. Data are expressed as mean±SEM. n=5-6.
Unilateral urine flow was measured by weighing the 15-minute output of the cannulated ureter. Total urine flow was estimated as twice this amount.
Treatments: To obtain dose-responses, peptides were dissolved in 0.15 M NaCl and administered as 0.1 ml bolus.

[2] = Arterial blood pressure and dP/dt in conscious rats by telemetry; assay type: in vivo, Male, Harlan Sprague Dawley rats; conditions: single intraperitoneal (ip) injection (100 µl)
Text: Insertion of Transducers: Male, Harlan Sprague Dawley rats were anesthetized with halothane and the abdominal aorta exposed after laparotomy. According to procedures detailed in the "Pressure Telemetry" manual from Data Sciences Inc., pressure transducer/transmitters were secured in place on the abdominal wall with the catheter tip in the abdominal aorta ~2mm above bifurcation. Following closure, the animals then recovered to allow at least 7 days of stable recordings. Baseline data were collected during the 7+ days after surgery.
The transmitted signals were recorded via telemetry and stored on a personal computer. Rate of pressure change, dP/dt, was calculated by software provided by Data Sciences.

CC[C@H](C)[C@H](NC(=O)[C@H](Cc1ccccc1)NC(=O)[C@H](CCC(=O)O)NC(=O)[C@H](CCCCN)NC(=O)[C@H](C)NC(=O)[C@H](C)NC(=O)[C@H](CCC(N)=O)NC(=O)CNC(=O)[C@H](CCC(=O)O)NC(=O)[C@H](CC(C)C)NC(=O)[C@H](Cc1ccc(O)cc1)NC(=O)[C@H](CO)NC(=O)[C@H](CO)NC(=O)[C@@H](NC(=O)[C@H](CC(=O)O)NC(=O)[C@H](CO)NC(=O)[C@@H](NC(=O)[C@H](Cc1ccccc1)NC(=O)[C@@H](NC(=O)CNC(=O)[C@H](CCC(=O)O)NC(=O)[C@H](C)NC(=O)[C@@H](N)Cc1c[nH]cn1)[C@@H](C)O)[C@@H](C)O)C(C)C)C(=O)N[C@@H](C)C(=O)N[C@@H](Cc1c[nH]c2ccccc12)C(=O)N[C@@H](CC(C)C)C(=O)N[C@H](C(=O)N[C@@H](CCCCN)C(=O)NCC(=O)N[C@@H](CCCNC(=N)N)C(N)=O)C(C)C [GLP-1]
sodium excretion [1]: increased | cardiac contractility (dP/dt) [2]: increase | mean arterial pressure [2]: increase
